Test results reported in patent US20100298141A1, “SUBSTITUTED PYRIDINE N-OXIDE HERBICIDES” (E. I. DU PONT DE NEMOURS AND COMPANY, priority 2007, published 2010).

How the values were obtained:
Test in all cases: Test A pre-/postemergence greenhouse test
giant foxtail = type: in vivo, Setaria faberi; conditions: for Plant response rating, Foxtail, Giant: 0 to 100 scale where 0 is no effect and 100 is complete control; for Foxtail, Giant plant response rating: 0 to 100 scale
Excerpt: (§1) Seeds of barnyardgrass (Echinochloa crus-galli), crabgrass (Digitaria sanguinalis), giant foxtail (Setaria faberi), morningglory (Ipomoea spp.), redroot pigweed (Amaranthus retroflexus), velvetleaf (Abutilon theophrasti), wheat (Triticum aestivum), and corn (Zea mays) were planted into a blend of loam soil and sand and treated preemergence with a directed soil spray using test compounds formulated in a non-phytotoxic solvent mixture which included a surfactant. At the same time these species were also treated with postemergence applications of test compounds formulated in the same manner. Plants ranged in height from two to ten cm and were in the one- to two-leaf stage for the postemergence treatment. Treated plants and untreated controls were maintained in a greenhouse for approximately ten days, after which time all treated plants were compared to untreated controls and visually evaluated for injury. […] A dash (-) response means no test results.

barnyardgrass = type: in vivo, Echinochloa crus-galli; conditions: for Plant response rating, Barnyardgrass: 0 to 100 scale where 0 is no effect and 100 is complete control; for Barnyardgrass plant response rating: 0 to 100 scale
Excerpt: as §1

redroot pigweed = type: in vivo, Amaranthus retroflexus; conditions: for Plant response rating, Pigweed: 0 to 100 scale where 0 is no effect and 100 is complete control; for Pigweed plant response rating: 0 to 100 scale
Excerpt: as §1

crabgrass = type: in vivo, Digitaria sanguinalis; conditions: for Plant response rating, Crabgrass, Large: 0 to 100 scale where 0 is no effect and 100 is complete control; for Crabgrass, Large plant response rating: 0 to 100 scale
Excerpt: as §1

wheat = type: in vivo, Triticum aestivum; conditions: for Plant response rating, Wheat: 0 to 100 scale where 0 is no effect and 100 is complete control; for Wheat plant response rating: 0 to 100 scale
Excerpt: as §1

morningglory = type: in vivo, Ipomoea spp.; conditions: for Plant response rating, Morningglory: 0 to 100 scale where 0 is no effect and 100 is complete control; for Morningglory plant response rating: 0 to 100 scale
Excerpt: as §1

velvetleaf = type: in vivo, Abutilon theophrasti; conditions: for Plant response rating, Velvetleaf: 0 to 100 scale where 0 is no effect and 100 is complete control; for Velvetleaf plant response rating: 0 to 100 scale
Excerpt: as §1

corn = type: in vivo, Zea mays; conditions: for Plant response rating, Corn: 0 to 100 scale where 0 is no effect and 100 is complete control; for Corn plant response rating: 0 to 100 scale
Excerpt: as §1

[1] = Postemergence, 500 g ai/ha, 0 is no effect, 100 is complete control
[2] = Preemergence, 125 g ai/ha, 0 no effect, 100 complete control
[3] = Preemergence, 500 g ai/ha, 0 no effect, 100 complete control

## CCCc1cc[n+]([O-])c(S(=O)(=O)Cc2c(C(F)(F)F)nn(C)c2OCC(F)(F)F)c1 [Compound 115]
Giant foxtail; Postemergence, 125 g ai/ha
  Plant response rating, Foxtail, Giant: 40
Giant foxtail; [1]
  Foxtail, Giant plant response rating: 80
Giant foxtail; [2]
  Foxtail, Giant plant response rating: 90
Giant foxtail; [3]
  Foxtail, Giant plant response rating: 100
barnyardgrass; Postemergence, 125 g ai/ha
  Plant response rating, Barnyardgrass: 60
barnyardgrass; [1]
  Barnyardgrass plant response rating: 70
barnyardgrass; [2]
  Barnyardgrass plant response rating: 90
barnyardgrass; [3]
  Barnyardgrass plant response rating: 90
Redroot pigweed; Postemergence, 125 g ai/ha
  Plant response rating, Pigweed: 20
Redroot pigweed; [1]
  Pigweed plant response rating: 80
Redroot pigweed; [2]
  Pigweed plant response rating: 100
Redroot pigweed; [3]
  Pigweed plant response rating: 100
crabgrass; Postemergence, 125 g ai/ha
  Plant response rating, Crabgrass, Large: 20
crabgrass; [1]
  Crabgrass, Large plant response rating: 70
crabgrass; [2]
  Crabgrass, Large plant response rating: 80
crabgrass; [3]
  Crabgrass, Large plant response rating: 100
wheat; Postemergence, 125 g ai/ha
  Plant response rating, Wheat: 30
wheat; [1]
  Wheat plant response rating: 50
wheat; [2]
  Wheat plant response rating: 20
wheat; [3]
  Wheat plant response rating: 50
morningglory; Postemergence, 125 g ai/ha
  Plant response rating, Morningglory: 0
morningglory; [1]
  Morningglory plant response rating: 0
morningglory; [2]
  Morningglory plant response rating: 30
morningglory; [3]
  Morningglory plant response rating: 80
velvetleaf; Postemergence, 125 g ai/ha
  Plant response rating, Velvetleaf: 0
velvetleaf; [1]
  Velvetleaf plant response rating: 20
velvetleaf; [2]
  Velvetleaf plant response rating: 20
velvetleaf; [3]
  Velvetleaf plant response rating: 60
corn; Postemergence, 125 g ai/ha
  Plant response rating, Corn: 0
corn; [1]
  Corn plant response rating: 20
corn; [2]
  Corn plant response rating: 30
corn; [3]
  Corn plant response rating: 50

## CCCc1cc[n+]([O-])c(S(=O)(=O)Cc2c(C(F)(F)F)nn(C)c2OC(F)F)c1 [Compound 117]
Giant foxtail; Postemergence, 125 g ai/ha
  Plant response rating, Foxtail, Giant: 70
Giant foxtail; [1]
  Foxtail, Giant plant response rating: 80
Giant foxtail; [2]
  Foxtail, Giant plant response rating: 90
Giant foxtail; [3]
  Foxtail, Giant plant response rating: 90
barnyardgrass; Postemergence, 125 g ai/ha
  Plant response rating, Barnyardgrass: 40
barnyardgrass; [1]
  Barnyardgrass plant response rating: 80
barnyardgrass; [2]
  Barnyardgrass plant response rating: 20
barnyardgrass; [3]
  Barnyardgrass plant response rating: 90
Redroot pigweed; Postemergence, 125 g ai/ha
  Plant response rating, Pigweed: 60
Redroot pigweed; [1]
  Pigweed plant response rating: 80
Redroot pigweed; [2]
  Pigweed plant response rating: 100
Redroot pigweed; [3]
  Pigweed plant response rating: 100
crabgrass; Postemergence, 125 g ai/ha
  Plant response rating, Crabgrass, Large: 50
crabgrass; [1]
  Crabgrass, Large plant response rating: 80
crabgrass; [2]
  Crabgrass, Large plant response rating: 80
crabgrass; [3]
  Crabgrass, Large plant response rating: 90
wheat; Postemergence, 125 g ai/ha
  Plant response rating, Wheat: 40
wheat; [1]
  Wheat plant response rating: 50
wheat; [2]
  Wheat plant response rating: 30
wheat; [3]
  Wheat plant response rating: 70
morningglory; Postemergence, 125 g ai/ha
  Plant response rating, Morningglory: 40
morningglory; [1]
  Morningglory plant response rating: 90
morningglory; [2]
  Morningglory plant response rating: 80
morningglory; [3]
  Morningglory plant response rating: 90
velvetleaf; Postemergence, 125 g ai/ha
  Plant response rating, Velvetleaf: 50
velvetleaf; [1]
  Velvetleaf plant response rating: 60
velvetleaf; [2]
  Velvetleaf plant response rating: 10
velvetleaf; [3]
  Velvetleaf plant response rating: 90
corn; Postemergence, 125 g ai/ha
  Plant response rating, Corn: 0
corn; [1]
  Corn plant response rating: 40
corn; [2]
  Corn plant response rating: 20
corn; [3]
  Corn plant response rating: 60

## Cn1nc(C(F)(F)F)c(CS(=O)(=O)c2cc(C3CC3)cc[n+]2[O-])c1OCC(F)(F)F [Compound 119]
Giant foxtail; Postemergence, 125 g ai/ha
  Plant response rating, Foxtail, Giant: 30
Giant foxtail; [1]
  Foxtail, Giant plant response rating: 70
Giant foxtail; [2]
  Foxtail, Giant plant response rating: 90
Giant foxtail; [3]
  Foxtail, Giant plant response rating: 100
barnyardgrass; Postemergence, 125 g ai/ha
  Plant response rating, Barnyardgrass: 40
barnyardgrass; [1]
  Barnyardgrass plant response rating: 60
barnyardgrass; [2]
  Barnyardgrass plant response rating: 50
barnyardgrass; [3]
  Barnyardgrass plant response rating: 90
Redroot pigweed; Postemergence, 125 g ai/ha
  Plant response rating, Pigweed: 30
Redroot pigweed; [1]
  Pigweed plant response rating: 60
Redroot pigweed; [2]
  Pigweed plant response rating: 100
Redroot pigweed; [3]
  Pigweed plant response rating: 100
crabgrass; Postemergence, 125 g ai/ha
  Plant response rating, Crabgrass, Large: 40
crabgrass; [1]
  Crabgrass, Large plant response rating: 60
crabgrass; [2]
  Crabgrass, Large plant response rating: 80
crabgrass; [3]
  Crabgrass, Large plant response rating: 90
wheat; Postemergence, 125 g ai/ha
  Plant response rating, Wheat: 30
wheat; [1]
  Wheat plant response rating: 50
wheat; [2]
  Wheat plant response rating: 0
wheat; [3]
  Wheat plant response rating: 30
morningglory; Postemergence, 125 g ai/ha
  Plant response rating, Morningglory: 10
morningglory; [1]
  Morningglory plant response rating: 20
morningglory; [2]
  Morningglory plant response rating: 30
morningglory; [3]
  Morningglory plant response rating: 80
velvetleaf; Postemergence, 125 g ai/ha
  Plant response rating, Velvetleaf: 10
velvetleaf; [1]
  Velvetleaf plant response rating: 50
velvetleaf; [2]
  Velvetleaf plant response rating: 20
velvetleaf; [3]
  Velvetleaf plant response rating: 70
corn; Postemergence, 125 g ai/ha
  Plant response rating, Corn: 0
corn; [1]
  Corn plant response rating: 0
corn; [2]
  Corn plant response rating: 0
corn; [3]
  Corn plant response rating: 0
